# Laboratory results reported in ChEMBL document CHEMBL1140365, “Investigation of glycine alpha-ketoamide HCV NS3 protease inhibitors: effect of carboxylic acid isosteres” (Bioorg Med Chem Lett, 2005).
# *1 amine or outer side, *2 acyl side, *3 side chain or, on linkers, in order; H or OH if unused. Where a SMILES comes first, the peptide text is derived from it. [ ]: non-standard residue; d: D form. The star is where a group is joined. Abu(ψCOCO) = CC[C@H](N[*:1])C(=O)C(=O)[*:2]; X1 = O=C(C(=O)[*:2])[C@H](CC(F)F)N[*:1]; Pyrazinecarbonyl = O=C(c1cnccn1)*; Cha = N[C@@H](CC1CCCCC1)C(=O)O
# Biological target: NS3 (Hepatitis C virus, UniProt A3EZJ3)
# Experiment: Inhibitory concentration against glycine alpha-ketoamide HCV NS3 protease
# Parameters: species or system Hepacivirus hominis
# NS3, sequence (A3EZJ3 whole entry): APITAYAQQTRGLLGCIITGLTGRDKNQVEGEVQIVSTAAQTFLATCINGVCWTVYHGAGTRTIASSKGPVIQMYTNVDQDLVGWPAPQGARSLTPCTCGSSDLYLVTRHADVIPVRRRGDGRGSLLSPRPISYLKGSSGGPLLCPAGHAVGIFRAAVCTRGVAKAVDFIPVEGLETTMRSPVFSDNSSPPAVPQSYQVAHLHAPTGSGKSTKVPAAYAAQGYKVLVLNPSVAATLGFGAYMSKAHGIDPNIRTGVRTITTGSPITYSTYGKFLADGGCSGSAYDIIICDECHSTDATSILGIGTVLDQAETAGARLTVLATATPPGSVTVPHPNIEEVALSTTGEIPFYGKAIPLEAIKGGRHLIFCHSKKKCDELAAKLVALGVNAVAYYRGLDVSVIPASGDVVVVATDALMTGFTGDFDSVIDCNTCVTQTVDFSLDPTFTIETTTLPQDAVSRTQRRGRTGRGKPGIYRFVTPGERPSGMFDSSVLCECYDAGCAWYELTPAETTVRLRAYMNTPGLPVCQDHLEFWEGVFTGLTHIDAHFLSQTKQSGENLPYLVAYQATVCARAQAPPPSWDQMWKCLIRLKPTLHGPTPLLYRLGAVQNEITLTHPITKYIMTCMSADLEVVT
row,IC50 [nM],Compound
1,40,CC[C@H](C)[C@H](NC(=O)[C@H](CC(C)C)NC(=O)c1cnccn1)C(=O)N[C@@H](CC1CCCCC1)C(=O)N[C@@H](CC(F)F)C(=O)C(=O)NCc1nn[nH]n1
2,220,CC[C@H](NC(=O)[C@H](CC1CCCCC1)NC(=O)[C@@H](NC(=O)[C@H](CC(C)C)NC(=O)c1cnccn1)[C@@H](C)CC)C(=O)C(=O)NCS(=O)(=O)O
3,460,CC[C@H](NC(=O)[C@H](CC1CCCCC1)NC(=O)[C@@H](NC(=O)[C@H](CC(C)C)NC(=O)c1cnccn1)[C@@H](C)CC)C(=O)C(=O)NCc1nn[nH]n1
4,410,CC[C@H](NC(=O)[C@H](CC1CCCCC1)NC(=O)[C@@H](NC(=O)[C@H](CC(C)C)NC(=O)c1cnccn1)[C@@H](C)CC)C(=O)C(=O)NCC(=O)NS(=O)(=O)c1cccc([N+](=O)[O-])c1
5,1200,CC[C@H](NC(=O)[C@H](CC1CCCCC1)NC(=O)[C@@H](NC(=O)[C@H](CC(C)C)NC(=O)c1cnccn1)[C@@H](C)CC)C(=O)C(=O)NCC(=O)NS(=O)(=O)c1ccc2ccccc2c1
6,250,CC[C@H](NC(=O)[C@H](CC1CCCCC1)NC(=O)[C@@H](NC(=O)[C@H](CC(C)C)NC(=O)c1cnccn1)[C@@H](C)CC)C(=O)C(=O)NCC(=O)NS(=O)(=O)c1cccc(Cl)c1
7,12000,CC[C@H](NC(=O)[C@H](CC1CCCCC1)NC(=O)[C@@H](NC(=O)[C@H](CC(C)C)NC(=O)c1cnccn1)[C@@H](C)CC)C(=O)C(=O)NCC(=O)NS(=O)(=O)Cc1ccccc1
8,130,CC[C@H](NC(=O)[C@H](CC1CCCCC1)NC(=O)[C@@H](NC(=O)[C@H](CC(C)C)NC(=O)c1cnccn1)[C@@H](C)CC)C(=O)C(=O)NCC(=O)NS(=O)(=O)c1cc(Cl)cc(Cl)c1
9,8900,CC[C@H](NC(=O)[C@H](CC1CCCCC1)NC(=O)[C@@H](NC(=O)[C@H](CC(C)C)NC(=O)c1cnccn1)[C@@H](C)CC)C(=O)C(=O)NCC(=O)NS(=O)(=O)c1ccccc1
10,250,CC[C@H](NC(=O)[C@H](CC1CCCCC1)NC(=O)[C@@H](NC(=O)[C@H](CC(C)C)NC(=O)c1cnccn1)[C@@H](C)CC)C(=O)C(=O)NCC(=O)NS(=O)(=O)c1nnc(NC(C)=O)s1
11,2400,CC[C@H](NC(=O)[C@H](CC1CCCCC1)NC(=O)[C@@H](NC(=O)[C@H](CC(C)C)NC(=O)c1cnccn1)[C@@H](C)CC)C(=O)C(=O)NCC(=O)NS(=O)(=O)c1ccc(-c2ccccc2)cc1
12,110,CC[C@H](NC(=O)[C@H](CC1CCCCC1)NC(=O)[C@@H](NC(=O)[C@H](CC(C)C)NC(=O)c1cnccn1)[C@@H](C)CC)C(=O)C(=O)NCC(=O)NS(=O)(=O)c1cc(C(=O)O)ccc1Cl
13,640,CC[C@H](NC(=O)[C@H](CC1CCCCC1)NC(=O)[C@@H](NC(=O)[C@H](CC(C)C)NC(=O)c1cnccn1)[C@@H](C)CC)C(=O)C(=O)NCC(=O)NS(=O)(=O)c1cccc(-c2ccccc2)c1
14,920,CC[C@H](NC(=O)[C@H](CC1CCCCC1)NC(=O)[C@@H](NC(=O)[C@H](CC(C)C)NC(=O)c1cnccn1)[C@@H](C)CC)C(=O)C(=O)NCC(=O)NS(=O)(=O)c1ccc([N+](=O)[O-])cc1
15,470,CC[C@H](NC(=O)[C@H](CC1CCCCC1)NC(=O)[C@@H](NC(=O)[C@H](CC(C)C)NC(=O)c1cnccn1)[C@@H](C)CC)C(=O)C(=O)NCC(=O)NS(=O)(=O)C(F)(F)F
16,60,CC[C@H](C)[C@H](NC(=O)[C@H](CC(C)C)NC(=O)c1cnccn1)C(=O)N[C@@H](CC1CCCCC1)C(=O)N[C@@H](CC(F)F)C(=O)C(=O)NCC(=O)NS(=O)(=O)c1cc(Cl)cc(S(=O)(=O)NC(=O)c2ccccc2)c1
17,120,CC[C@H](NC(=O)[C@H](CC1CCCCC1)NC(=O)[C@@H](NC(=O)[C@H](CC(C)C)NC(=O)c1cnccn1)[C@@H](C)CC)C(=O)C(=O)NCC(=O)NS(=O)(=O)c1cc(Cl)cc(S(=O)(=O)NC(=O)c2ccccc2)c1
18,50,CC[C@H](C)[C@H](NC(=O)[C@H](CC(C)C)NC(=O)c1cnccn1)C(=O)N[C@@H](CC1CCCCC1)C(=O)N[C@@H](CC(F)F)C(=O)C(=O)NCC(=O)NS(=O)(=O)c1cc(Cl)cc(S(N)(=O)=O)c1
19,25000,CC[C@H](NC(=O)[C@H](CC1CCCCC1)NC(=O)[C@@H](NC(=O)[C@H](CC(C)C)NC(=O)c1cnccn1)[C@@H](C)CC)C(=O)C(=O)NCC(=O)NS(C)(=O)=O
20,230,CC[C@H](NC(=O)[C@H](CC1CCCCC1)NC(=O)[C@@H](NC(=O)[C@H](CC(C)C)NC(=O)c1cnccn1)[C@@H](C)CC)C(=O)C(=O)NCC(=O)O (Pyrazinecarbonyl-LI[Cha][Abu(ψCOCO)]G-OH)
21,60,CC[C@H](C)[C@H](NC(=O)[C@H](CC(C)C)NC(=O)c1cnccn1)C(=O)N[C@@H](CC1CCCCC1)C(=O)N[C@@H](CC(F)F)C(=O)C(=O)NCC(=O)O (Pyrazinecarbonyl-LI[Cha][X1]G-OH)

row,Compound,IC50 [nM]
1,CC[C@H](C)[C@H](NC(=O)[C@H](CC(C)C)NC(=O)c1cnccn1)C(=O)N[C@@H](CC1CCCCC1)C(=O)N[C@@H](CC(F)F)C(=O)C(=O)NCC(=O)NS(=O)(=O)c1cccc(-c2ccccc2)c1,60
2,CCCCCC(=O)Nc1nnc(S(=O)(=O)NC(=O)CNC(=O)C(=O)[C@H](CC(F)F)NC(=O)[C@H](CC2CCCCC2)NC(=O)[C@@H](NC(=O)[C@H](CC(C)C)NC(=O)c2cnccn2)[C@@H](C)CC)s1,20
3,CC[C@H](C)[C@H](NC(=O)[C@H](CC(C)C)NC(=O)c1cnccn1)C(=O)N[C@@H](CC1CCCCC1)C(=O)N[C@@H](CC(F)F)C(=O)C(=O)NCC(=O)NS(=O)(=O)c1nnc(NC(=O)c2ccc(Cl)cc2)s1,20
